# Patent US20210009613A1, “ARYLPHOSPHINE OXIDES FOR INHIBITING KINASE ACTIVITY” (Shenzhen TargetRx, Inc., priority 2017, published 2021)
# Columns and labels:
# [1] = tested on: Ba/F3 [EML4-ALK L1196M]; assay: Cytotoxicity test (CellTiter-Glo), Ba/F3 [EML4-ALK L1196M]; format: cell-based; conditions: ratio of Ba/F3 IC50 values
# Experimental: (§1) The in vitro anti-proliferative activity of the compounds of the present disclosure against three types of cells that are cultured in vitro was tested by CellTiter-Glo method.
# (§2) Cell lines: Ba/F3 parental; Ba/F3 [EML4-ALK] (From WuXi PharmaTech) and Ba/F3 [EML4-ALK L1196M] (From WuXi PharmaTech); wherein, Ba/F3 parental was cultured in RPMI1640 medium containing 10 ng/ml IL-3, […], 100 U/ml penicillin, and 100 μg/ml streptomycin, Ba/F3 [EML4-ALK] and Ba/F3 [EML4-ALK L1196M] were cultured in RPMI1640 medium containing 10% fetal bovine serum, 100 U/ml penicillin, and 100 μg/ml streptomycin.
# (§3) Reagents and materials: RPMI-1640 (GIBCO, Cat. No. A10491-01); fetal bovine serum (GIBCO, Cat. No. 10099141); 0.25% trypsin-EDTA (GIBCO, Cat. No. 25200); penicillin-streptomycin, liquid (GIBCO, Cat. No. 15140-122); DMSO (Sigma, Cat. No. D2650); CellTiter-Glo Test Kit (Promega, Cat. No. G7572), and 96-well plate (Corning, Cat. No. 3365).
# (§4) Specific experimental procedures: • 1. The test compounds were dissolved in DMSO to make stock solutions and subjected to a series gradient dilution to give solutions with 10-fold working concentration. • 2. The cells in the logarithmic growth phase were diluted with the culture solution to adjust to the specific cell concentration, 90 μl of cell suspension was added to the 96-well plate to make the cell density reach the specified concentration. The plate was incubated in a incubator at 37° C., containing 5% carbon dioxide gas overnight. • 3. 10 μl drug solutions were added to each well of the 96-well plate inoculated with cells. 10 concentrations of the compounds were tested starting from the highest concentration of 20 μM with a 3-fold series gradient dilution in duplicate. • 4. After continuously cultured for 72 hours, the cells were detected by CellTiter-Glo for the cell viability. The dose-effect curve was made using GraphPad Prism software and IC50 was calculated.
# [2] = target: T1, Ba/F3 [EML4-ALK L1196M] (Homo sapiens, UniProt Q9UM73, L1196M, cells depend on it); assay: as above; format: cell-based; conditions: 72 hours, CellTiter-Glo; read-out: IC50(nM) ALK[L1196M] (Ba/F3)
# T1 construct: IC50(nM) ALK[L1196M]; (Ba/F3); other: 72 hours, CellTiter-Glo; Ba/F3 [EML4-ALK L1196M]; fused on or other part: Q9HC35 (Echinoderm microtubule-associated protein-like 4)
# Experimental: as §1, §2, §3, §4
# [3] = target: ALK [L1196M] (Homo sapiens, UniProt Q9UM73, L1196M); assay: Kinase inhibition assay, ALK [L1196M]; format: biochemical
# Experimental: (§5) Compound preparation: The test compounds were dissolved in DMSO to make 20 mM stock solutions. The compounds were diluted in DMSO to 0.1 mM (a dilution with 100 times the final concentration) before use, and a 3-fold series gradient dilution with 11 concentrations was made. Dilutions with 4 times of the final concentration were prepared by diluting with buffer when dosing.
# (§6) Kinase assay: after preparing the buffer solution, the enzyme was mixed with pre-diluted compounds with different concentrations, and placed at room temperature for 30 minutes in duplicate. The corresponding substrate and ATP were added thereto and reacted at room temperature for 60 minutes (both a negative and a positive control were set). After the reaction, antibody was added for detection, and after incubation at room temperature for 60 minutes, Evnvision detection was carried out, and data was collected. Data was analyzed and fit according to XLfit5 software. IC50 was calculated by the following formula: (IC50=[(ABS test-ABS begin)/(ABS control-ABS begin)]×100).
# [4] = tested on: Ba/F3 parental; assay: Cytotoxicity test (CellTiter-Glo), Ba/F3 parental; format: cell-based; conditions: Mus musculus, BaF3, 72 hours
# Experimental: as §1, §2, §3, §4
# [5] = target: T2, Ba/F3 [EML4-ALK] (Homo sapiens, UniProt Q9UM73); assay: Cytotoxicity test (CellTiter-Glo), Ba/F3 [EML4-ALK]; format: cell-based; conditions: 72 hours, CellTiter-Glo; read-out: IC50(nM) ALK (Ba/F3)
# T2 construct: IC50(nM) ALK (Ba/F3); other: 72 hours, CellTiter-Glo; Ba/F3 [EML4-ALK]; fused on or other part: Q9HC35 (Echinoderm microtubule-associated protein-like 4)
# Experimental: as §1, §2, §3, §4
# [6] = tested on: Ba/F3 [EML4-ALK]; assay: as above; format: cell-based; conditions: ratio of Ba/F3 IC50 values
# Experimental: as §1, §2, §3, §4
# [7] = target: ALK [WT] (Homo sapiens, UniProt Q9UM73); assay: Kinase inhibition assay, ALK [WT]; format: biochemical
# Experimental: as §5, §6
# T2 sequence (Q9UM73 whole entry, change not shown, the tested form may be a part): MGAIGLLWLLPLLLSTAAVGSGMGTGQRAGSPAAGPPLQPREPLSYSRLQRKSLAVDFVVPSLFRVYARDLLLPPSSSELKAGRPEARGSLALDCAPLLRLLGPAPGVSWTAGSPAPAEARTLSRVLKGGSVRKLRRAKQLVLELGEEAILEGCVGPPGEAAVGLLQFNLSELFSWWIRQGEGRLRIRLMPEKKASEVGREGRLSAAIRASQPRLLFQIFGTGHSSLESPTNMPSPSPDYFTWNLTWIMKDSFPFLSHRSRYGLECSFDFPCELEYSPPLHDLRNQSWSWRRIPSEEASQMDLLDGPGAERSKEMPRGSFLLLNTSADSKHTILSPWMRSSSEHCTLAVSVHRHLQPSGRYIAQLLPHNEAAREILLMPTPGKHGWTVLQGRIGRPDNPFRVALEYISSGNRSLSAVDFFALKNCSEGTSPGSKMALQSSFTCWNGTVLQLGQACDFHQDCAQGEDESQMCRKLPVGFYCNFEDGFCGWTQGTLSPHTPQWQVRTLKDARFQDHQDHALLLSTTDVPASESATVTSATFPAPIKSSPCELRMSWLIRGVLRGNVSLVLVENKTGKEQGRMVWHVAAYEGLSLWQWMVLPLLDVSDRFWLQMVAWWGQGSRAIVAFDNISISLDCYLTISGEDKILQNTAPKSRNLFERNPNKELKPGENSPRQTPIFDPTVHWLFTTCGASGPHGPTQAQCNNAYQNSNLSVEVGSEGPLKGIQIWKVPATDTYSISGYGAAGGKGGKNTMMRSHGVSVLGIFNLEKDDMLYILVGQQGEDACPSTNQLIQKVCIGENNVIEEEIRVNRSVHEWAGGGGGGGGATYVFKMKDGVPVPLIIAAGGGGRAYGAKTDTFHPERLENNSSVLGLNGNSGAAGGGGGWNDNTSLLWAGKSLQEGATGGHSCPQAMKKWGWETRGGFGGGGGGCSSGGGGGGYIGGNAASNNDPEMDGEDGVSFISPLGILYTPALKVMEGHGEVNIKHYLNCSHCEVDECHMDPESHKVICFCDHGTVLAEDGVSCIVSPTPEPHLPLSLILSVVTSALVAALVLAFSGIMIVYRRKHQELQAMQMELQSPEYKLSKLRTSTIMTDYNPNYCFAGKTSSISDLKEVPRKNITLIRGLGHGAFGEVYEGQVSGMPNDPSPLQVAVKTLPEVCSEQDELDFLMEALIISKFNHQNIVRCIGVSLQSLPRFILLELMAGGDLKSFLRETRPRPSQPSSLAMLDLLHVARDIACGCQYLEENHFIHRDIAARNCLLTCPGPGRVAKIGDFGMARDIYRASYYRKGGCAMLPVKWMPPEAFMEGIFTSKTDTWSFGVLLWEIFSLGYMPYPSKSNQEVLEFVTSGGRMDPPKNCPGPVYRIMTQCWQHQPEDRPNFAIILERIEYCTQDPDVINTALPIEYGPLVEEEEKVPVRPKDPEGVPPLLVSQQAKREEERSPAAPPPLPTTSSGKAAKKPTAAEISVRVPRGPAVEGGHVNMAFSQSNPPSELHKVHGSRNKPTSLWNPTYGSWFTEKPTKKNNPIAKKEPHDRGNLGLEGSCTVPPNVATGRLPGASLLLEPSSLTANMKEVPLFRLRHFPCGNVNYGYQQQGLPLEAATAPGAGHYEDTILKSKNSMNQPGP
# ALK [L1196M], sequence (Q9UM73 19-1620 L1196M): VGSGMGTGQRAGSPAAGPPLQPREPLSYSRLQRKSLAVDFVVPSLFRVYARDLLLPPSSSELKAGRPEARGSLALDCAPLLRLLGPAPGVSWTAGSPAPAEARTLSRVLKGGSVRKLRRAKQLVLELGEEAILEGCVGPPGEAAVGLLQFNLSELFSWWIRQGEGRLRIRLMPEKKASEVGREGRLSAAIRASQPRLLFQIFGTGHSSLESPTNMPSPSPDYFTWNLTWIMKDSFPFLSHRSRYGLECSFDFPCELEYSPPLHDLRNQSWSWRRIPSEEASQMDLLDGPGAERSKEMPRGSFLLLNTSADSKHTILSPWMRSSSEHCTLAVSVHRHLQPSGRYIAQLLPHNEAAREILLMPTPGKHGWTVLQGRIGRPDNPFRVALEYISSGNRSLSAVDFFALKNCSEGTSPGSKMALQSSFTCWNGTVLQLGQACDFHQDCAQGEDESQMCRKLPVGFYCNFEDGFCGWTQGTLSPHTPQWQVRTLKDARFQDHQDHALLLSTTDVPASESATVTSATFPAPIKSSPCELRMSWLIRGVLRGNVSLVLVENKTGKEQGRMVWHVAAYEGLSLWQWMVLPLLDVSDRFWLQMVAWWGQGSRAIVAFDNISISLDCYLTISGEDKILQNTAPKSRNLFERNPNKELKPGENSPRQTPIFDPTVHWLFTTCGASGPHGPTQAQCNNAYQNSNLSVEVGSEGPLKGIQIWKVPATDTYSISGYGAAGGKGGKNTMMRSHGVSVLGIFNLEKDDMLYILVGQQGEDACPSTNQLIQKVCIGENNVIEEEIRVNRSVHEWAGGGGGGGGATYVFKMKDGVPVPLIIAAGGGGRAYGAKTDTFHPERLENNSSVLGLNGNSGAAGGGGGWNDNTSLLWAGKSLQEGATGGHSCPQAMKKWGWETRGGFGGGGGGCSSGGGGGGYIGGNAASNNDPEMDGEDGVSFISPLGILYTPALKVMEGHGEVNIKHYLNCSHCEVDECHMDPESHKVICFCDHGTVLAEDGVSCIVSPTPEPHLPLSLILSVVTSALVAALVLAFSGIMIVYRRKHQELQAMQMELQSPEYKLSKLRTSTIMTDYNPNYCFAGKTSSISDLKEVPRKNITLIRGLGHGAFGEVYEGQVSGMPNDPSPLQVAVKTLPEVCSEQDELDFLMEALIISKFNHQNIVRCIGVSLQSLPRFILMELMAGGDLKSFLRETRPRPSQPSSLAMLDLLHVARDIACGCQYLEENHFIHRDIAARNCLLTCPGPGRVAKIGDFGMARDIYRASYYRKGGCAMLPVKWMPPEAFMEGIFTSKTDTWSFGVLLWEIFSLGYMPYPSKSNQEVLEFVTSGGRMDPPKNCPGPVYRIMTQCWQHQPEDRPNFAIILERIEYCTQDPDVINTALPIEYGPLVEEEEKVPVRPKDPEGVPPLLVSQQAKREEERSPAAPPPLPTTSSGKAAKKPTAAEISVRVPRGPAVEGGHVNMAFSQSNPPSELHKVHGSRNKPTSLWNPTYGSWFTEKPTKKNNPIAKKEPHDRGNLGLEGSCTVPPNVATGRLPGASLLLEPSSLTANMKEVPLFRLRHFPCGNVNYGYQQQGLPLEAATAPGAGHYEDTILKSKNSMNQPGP
# T1 sequence (Q9UM73 whole entry L1196M, the tested form may be a part): as the sequence (Q9UM73 whole entry, change not shown, the tested form may be a part) above, with L1196M counted along it
# ALK [WT], sequence (Q9UM73 19-1620): as the sequence (Q9UM73 19-1620 L1196M) above, with M1178L counted along it
Compound,Selectivity parental/ALK[L1196M] [1],GI50 [2],IC50 [3],IC50 [4],GI50 [5],Selectivity parental/ALK [6],IC50 [7]
"COc1nc(N2CCC(N(C)C)CC2)ccc1Nc1ncc(Cl)c(Nc2ccccc2P(C)(C)=O)n1 [Example 1, (2-((5-chloro-2-((6-(4-(dimethylamino)piperidin-1-yl)-2-methoxypyridin-3-)amino)pyrimidin-4-yl)amino)phenyl)dimethylphosphine oxide]",0~50,50 to 100 nM,5 to 10 nM,≥ 1000 nM,≤ 50 nM,50~100,≤ 5 nM
"COc1nc(N2CCN(C)CC2)ccc1Nc1ncc(Cl)c(Nc2ccccc2P(C)(C)=O)n1 [Example 2, (2-((5-chloro-2-((2-methoxy-6-(4-methylpiperazin-1-yl)pyridin-3-yl)amino)pyrimidin-4-yl)amino)phenyl)dimethylphosphine oxide]",0~50,50 to 100 nM,≤ 5 nM,≥ 1000 nM,≤ 50 nM,50~100,≤ 5 nM
"COc1nc(N(C)CCN(C)C)ccc1Nc1ncc(Cl)c(Nc2ccccc2P(C)(C)=O)n1 [Example 3, (2-((5-chloro-2-((6-((2-(dimethylamino)ethyl)(methyl)amino)-2-methoxypyridin-3-yl)amino)pyrimidin-4-yl)amino)phenyl)dimethylphosphine oxide]",50~100,50 to 100 nM,5 to 10 nM,≥ 1000 nM,≤ 50 nM,100~200,≤ 5 nM
"COc1nc(N2CCC(N3CCN(C)CC3)CC2)ccc1Nc1ncc(Cl)c(Nc2ccccc2P(C)(C)=O)n1 [Example 4, (2-((5-chloro-2-((2-methoxy-6-(4-(4-methylpiperazin-1-yl)piperidin-1-yl)pyridin-3-yl)amino)pyrimidin-4-yl)amino)phenyl)dimethylphosphine oxide]",0~50,50 to 100 nM,5 to 10 nM,≥ 1000 nM,≤ 50 nM,50~100,5 to 10 nM
"CC(C)Oc1nc(N2CCC(N(C)C)CC2)ccc1Nc1ncc(Cl)c(Nc2ccccc2P(C)(C)=O)n1 [Example 5, (2-((5-chloro-2-((6-(4-(dimethyaminono)piperidin-1-yl)-2-isopropoxypyridin-3-yl)amino)pyrimidin-4-yl)amino)phenyl)dimethylphosphine oxide]",50~100,50 to 100 nM,≤ 5 nM,≥ 1000 nM,≤ 50 nM,100~200,5 to 10 nM
"CC(C)Oc1nc(N2CCN(C)CC2)ccc1Nc1ncc(Cl)c(Nc2ccccc2P(C)(C)=O)n1 [Example 6, (2-((5-chloro-2-((2-isopropoxy-6-(4-methylpiperazin-1-yl)pyridin-3-yl)amino)pyrimidin-4-yl)amino)phenyl)dimethylphosphine oxide]",50~100,100 to 400 nM,≤ 5 nM,≥ 1000 nM,≤ 50 nM,200~400,5 to 10 nM
"CC(C)Oc1nc(N(C)CCN(C)C)ccc1Nc1ncc(Cl)c(Nc2ccccc2P(C)(C)=O)n1 [Example 7, (2-((5-chloro-2-((6-((2-(dimethylamino)ethyl)(methyl)amino)-2-isopropoxypyridin-3-yl)amino)pyrimidin-4-yl)amino)phenyl)dimethylphosphine oxide]",50~100,50 to 100 nM,5 to 10 nM,≥ 1000 nM,≤ 50 nM,200~400,10 to 50 nM
"CC(C)Oc1nc(N2CCC(N3CCN(C)CC3)CC2)ccc1Nc1ncc(Cl)c(Nc2ccccc2P(C)(C)=O)n1 [Example 8, (2-((5-chloro-2-((2-isopropoxy-6-(4-(4-methylpiperazin-1-yl)piperidin-1-yl)pyridin-3-yl)amino)pyrimidin-4-yl)amino)phenyl)dimethyl phosphine oxide]",50~100,100 to 400 nM,5 to 10 nM,≥ 1000 nM,≤ 50 nM,200~400,5 to 10 nM
"CN(C)C1CCN(c2ccc(Nc3ncc(Cl)c(Nc4ccccc4P(C)(C)=O)n3)c(OCC(F)(F)F)n2)CC1 [Example 9, (2-((5-chloro-2-((6-(4-(dimethyaminono)piperidin-1-yl)-2-(2,2,2-trifluoroethoxy)pyridin-3-yl)amino)pyrimidin-4-yl)amino)phenyl)dimethylphosphine oxide]",50~100,50 to 100 nM,5 to 10 nM,≥ 1000 nM,≤ 50 nM,200~400,≤ 5 nM
"CN1CCN(c2ccc(Nc3ncc(Cl)c(Nc4ccccc4P(C)(C)=O)n3)c(OCC(F)(F)F)n2)CC1 [Example 10, (2-((5-chloro-2-((6-(4-methylpiperazin-1-yl)-2-(2,2,2-trifluoroethoxy)pyridin-3-yl)amino)pyrimidin-4-yl)amino)phenyl)dimethylphosphine oxide]",50~100,100 to 400 nM,5 to 10 nM,≥ 1000 nM,≤ 50 nM,100~200,≤ 5 nM
"CN(C)CCN(C)c1ccc(Nc2ncc(Cl)c(Nc3ccccc3P(C)(C)=O)n2)c(OCC(F)(F)F)n1 [Example 11, (2-((5-chloro-2-((6-((2-(dimethylamino)ethyl)(methyl)amino)-2-(2,2,2-trifluoroethoxy)pyridin-3-yl)amino)pyrimidin-4-yl)amino)phenyl)dimethylphosphine oxide]",50~100,100 to 400 nM,10 to 50 nM,≥ 1000 nM,50 to 100 nM,100~200,≤ 5 nM
"CN1CCN(C2CCN(c3ccc(Nc4ncc(Cl)c(Nc5ccccc5P(C)(C)=O)n4)c(OCC(F)(F)F)n3)CC2)CC1 [Example 12, (2-((5-chloro-2-((6-(4-(4-methylpiperazin-1-yl)piperidin-1-yl)-2-(2,2,2-trifluoroethoxy)pyridin-3-yl)amino)pyrimidin-4-yl)amino)phenyl)dimethylphosphine oxide]",0~50,50 to 100 nM,10 to 50 nM,≥ 1000 nM,≤ 50 nM,111.30,5 to 10 nM
"COc1nc(N2CCC(N(C)C)CC2)ccc1Nc1nc(Nc2ccccc2P(C)(C)=O)c2cc[nH]c2n1 [Example 13, (2-((2-((6-(4-(dimethylamino)piperidin-1-yl)-2-methoxypyridin-3-yl)amino)-7H-pyrrolo [2,3-d]pyrimidin-4-yl)amino)phenyl)dimethylphosphine oxide]",0~50,50 to 100 nM,≤ 5 nM,400 to 1000 nM,≤ 50 nM,0~50,5 to 10 nM
